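Following 48 hours of exposure in 96-well plates, responses at five concentrations were used to interpolate endpoints linearly. GI50: concentration for 50% inhibition of growth.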 Active and inactive are the calls of the source. Cut-off read from the data, not from the text of the source: active = GI50 up to about 1.1 µM and inactive = higher.
Columns and labels:
Assay in all cases: NCI-60 cell line screen, 48 h
BT-549 = test system: BT-549
EKVX = test system: EKVX
Malme-3M = test system: Malme-3M
OVCAR-3 = test system: OVCAR-3
SNB-19 = test system: SNB-19
TK-10 = test system: TK-10

SMILES: C=C1C(=O)O[C@@H]2C=C(C)C3=CC(=O)[C@](C)(C[C@H](OC(=O)/C(C)=C\C)[C@@H]12)O3
- GI50 (BT-549): 493 nM (active)
- GI50 (EKVX): 2.77 µM (inactive)
- GI50 (Malme-3M): 1.34 µM (inactive)
- GI50 (OVCAR-3): 491 nM (active)
- GI50 (SNB-19): 8.47 µM (inactive)
- GI50 (TK-10): 826 nM (active)
